Patent US20200341014A1, “PD Marker of Hepatocyte Growth Factor (HGF)” (EISAI R&D MANAGEMENT CO., LTD., priority 2016, published 2020)

Test system: ApoA4 gene expression
Assay: DNA microarray analysis of hepatic tissue of healthy mice administered rh-HGF
Format: in vivo, mouse
Procedure: Using hepatocyte growth factor activator recombinantly expressed in Chinese hamster ovary (CHO) cells, human HGF recombinantly expressed in CHO cells were activated to obtain rh-HGF. BALB/cAnNCrlCrlj male 6 weeks-old mice (CHARLES RIVER JAPAN) were intravenously administered with Dulbecco's Phosphate buffered saline (PBS) (Wako, #045-29795) or rh-HGF (1.5 mg/kg). […] After euthanization, hepatic tissue was collected and immersed in RNA later (Ambion, #AM7021).
From the harvested liver, total RNA was purified with TRIZOL Reagent (Invitrogen, #15596-018), RNeasy Mini Kit (QIAGEN, #74104), and RNase-Free DNase set (QIAGEN, #79254). RNA concentration was measured by absorbance, and then quality check was carried out with RNA 6000 Nano Assay Kit (Agilent Technologies, #5067-1511) using 2100 Bioanalyzer (Agilent Technologies).
The DNA microarray used was SurePrint G3 mouse GE 8×60K (Agilent Technologies, #G4852A). […] Among this, as molecules that may appear to possibly exist as soluble proteins, those having information of “Extracellular” or “Plasma membrane” in Gene Ontology annotation were extracted.

## rh-HGF: human HGF recombinantly expressed in CHO cells, activated with hepatocyte growth factor activator recombinantly expressed in CHO cells
liver, 8 hr after rh-HGF 1.5 mg/kg intravenous
  Signal value (average) 8 hours, ApoA4 (A_51_P327491): 15738
liver, 8 hr after rh-HGF 1.5 mg/kg intravenous, vs PBS group
  Change in expression (vs 0 hours) 8 hours Ratio, ApoA4: 6.46
liver, 24 hr after rh-HGF 1.5 mg/kg intravenous
  Signal value (average) 24 hours, ApoA4 (A_51_P327491): 13453
liver, 24 hr after rh-HGF 1.5 mg/kg intravenous, vs PBS group
  Change in expression (vs 0 hours) 24 hours Ratio, ApoA4: 5.52
rh-HGF 1.5 mg/kg intravenous vs PBS only (Group 1)
  ApoA4 expression in liver (DNA microarray): enhancement of expression
